Laboratory results taken from patent publication US20070167402A1, “Product of coprecipitation of sparingly soluble substance and water-soluble polymer and process for producing the same” (Meiji Seika Kaisha, Ltd., priority 2003, published 2007).

Assay: Test 1: Solubility Test (water as test medium, 37° C., HPLC)
Type: physicochemical
Settings: for solubility in aqueous methyl cellulose or HPMC solution: test medium e.g. 0.5% aqueous methyl cellulose or HPMC solution, compared with value in water (below 3 μg/mL); for solubility (concentration of Compound A in suspension): 37° C., at the point of 30 minutes in Test 1
Description: Each mixture was sampled at several points of time, and each sample was filtered through a membrane filter (Sunprep LCR13-LG, manufactured by Millipore Corp., Japan).
The measurement conditions used for HPLC in Test 1 were as follows: • Detector: Ultraviolet absorptiometer (measurement wavelength: 246 nm) • Column: Stainless steel tube with an inner diameter of 4.6 mm and a length of 25 cm, for 5 μm liquid chromatography, • Column temperature: Fixed temperature at around 40° C. • Mobile phase: Mixture of methanol and water (55:45) • Flow rate: 1 mL/min

solubility (concentration of Compound A in suspension) (water) [µg/mL] | solubility (water, 37 °C, water, thermodynamic from solid, water 37° C., 200 rpm paddles, at 30 minutes after the beginning of the test and after, read-out: concentration of Compound A in solubility test (FIG. 1)) [µg/mL] | SMILES | solubility in aqueous methyl cellulose or HPMC solution
0.8 | < 3 | COc1cc2[nH]c(=O)c3nn(C(OC(=O)OC(C)C)C(C)C)nc3c(=O)c2cc1OC (single isomer, unassigned) [Comparative Example 1, 2-(1-Isopropoxycarbonyloxy-2-methylpropyl)-7,8-dimethoxy-4(5H), 10-dioxo-2H-1,2,3-triazolo[4,5-c][1]benzazepine] | nearly equal to the above-described value of concentration
2.4 | – | COc1cc2[nH]c(=O)c3nn(C(OC(=O)OC(C)C)C(C)C)nc3c(=O)c2cc1OC (single isomer, unassigned) [Comparative Example 2, 2-(1-Isopropoxycarbonyloxy-2-methylpropyl)-7,8-dimethoxy-4(5H), 10-dioxo-2H-1,2,3-triazolo[4,5-c][1]benzazepine] | nearly equal to the above-described value of concentration
